Data on five molecules can be found in patent US20150038545A1, “HYDROXYPHENYL PYRROLE COMPOUNDS CONTAINING AN HYDROXAMIC ACID AS HDAC INHIBITORS AND MEDICINAL APPLICATIONS THEREOF” (UNIVERSIDAD DEL PAÍS VASCO, priority 2011, published 2015).

The target in one data set is T1, Human HDAC7 (Homo sapiens, UniProt Q8WUI4).
T1 construct: Amino acids 518-end with N-terminal GST tag, MW=78 kDa; GST (N); purchased BioMol, Hamburg, Germany
T1 sequence (Q8WUI4 518-952 limits assumed): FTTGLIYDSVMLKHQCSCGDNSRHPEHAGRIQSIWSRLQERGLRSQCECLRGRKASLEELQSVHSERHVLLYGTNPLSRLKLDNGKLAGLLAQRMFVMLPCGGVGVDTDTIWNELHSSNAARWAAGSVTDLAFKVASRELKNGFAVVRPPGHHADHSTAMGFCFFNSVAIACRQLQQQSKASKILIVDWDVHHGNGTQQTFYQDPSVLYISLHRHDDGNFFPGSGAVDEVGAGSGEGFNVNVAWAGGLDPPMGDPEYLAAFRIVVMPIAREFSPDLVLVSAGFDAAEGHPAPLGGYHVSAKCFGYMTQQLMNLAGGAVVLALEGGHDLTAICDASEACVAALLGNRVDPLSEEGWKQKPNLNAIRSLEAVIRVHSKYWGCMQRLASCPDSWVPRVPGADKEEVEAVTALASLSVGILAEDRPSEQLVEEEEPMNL
Description: In vitro HDAC7 inhibition, fluorogenic peptide assay. Conditions: for IC50: read-out: IC50 (nM) of enzyme activity HDAC7. It is filed as biochemical. How it is done:
All HDAC assays were performed using acetylated AMC-labeled peptide substrate: • Substrate for isoforms HDAC1, 2, 3, 4, 5, 6, 7, 9, 10, 11 and HeLa nuclear extract assays: Acetylated fluorogenic peptide from p53 residues 379-382 (RHKKAc) (BioMol. Cat. # KI-104). • Substrate for HDAC8 assays: Acetylated fluorogenic peptide from p53 residues 379-382 (RHKAcKAc) (BioMol. Cat. # KI-178).
Enzymes: • HDAC1 assay: 75 nM Human HDAC1 (GenBank Accession No. NM_004964): Full length with C-terminal GST tag, MW=79.9 kDa, expressed by baculovirus expression system in Sf9 cells (BioMol. Cat. # SE-456). • HDAC2 assay: 5 nM Human HDAC2 (GenBank Accession No. Q92769): Full length with C-terminal His tag, MW=60 kDa, expressed by baculovirus expression system in Sf9 cells (BioMol. Cat. # SE-500). • HDAC3 assay: 2.3 nM Human HDAC3/NcoR2 (GenBank Accession No. NM_003883 for HDAC3, GenBank Accession No.NM_006312 for NcoR2): Complex of human HDAC3, full length with C-terminal His tag, MW=49.7 kDa, and human NCOR2, N-terminal GST tag, MW=39 kDa, co-expressed in baculovirus expression system (BioMol. Cat. # SE-507). • HDAC4 assay: 266 nM Human HDAC4 (GenBank Accession No. NM_006037): Amino acids 627-1085 with N-terminal GST tag, MW=75.2 kDa, expressed in baculovirus expression system (BioMol, Hamburg, Germany). • HDAC5 assay: 588 nM Human HDAC5 (GenBank Accession No. NM_001015053): Full length with Nterminal GST tag, MW=150 kDa, expressed by baculovirus expression system in Sf9 cells (BioMol, Hamburg, Germany). • HDAC6 assay: 13 nM Human HDAC6 (GenBank Accession No. BC069243): Full length with N-terminal GST tag, MW=159 kDa, expressed by baculovirus expression system in Sf9 cells (BioMol. Cat. # SE-508). • HDAC7 assay: 962 nM Human HDAC7 (GenBank Accession No. AY302468): Amino acids 518-end with N-terminal GST tag, MW=78 kDa, expressed in baculovirus expression system (BioMol, Hamburg, Germany). • HDAC8 assay: 119 nM Human HDAC8 (GenBank Accession No. NM018486): Full length, MW=42 kDa, expressed in an E. coli expression system (BioMol. […]
The reactions were carried out in a 96-well microplate for fluorometry in a 50 μl reaction volume. […] The reaction was allowed to develop for 45 minutes at 30° C. with 5% CO2; then the fluorescent signal was measured with an excitation wavelength at 360 nm and an emission wavelength at 460 nm in a microplate-reading fluorometer (GeminiXS; Molecular Devices, Sunnyvale, Calif.). […] IC50 was calculated by fitting the experimental data to a dose-response curve. […]

Consider `COc1ccc(-c2cc(-c3ccccc3)[nH]c2C(=O)NCCCCCC(=O)NO)cc1` [Compound A, N-[6-(hydroxyamino)-6-oxohexyl]-3-(4-methoxyphenyl)-5-phenyl-1H-pyrrole-2-carboxamide, reference compound], for which the “Selectivity against HDAC6 (IC50 HDACx/IC50 HDAC6) HDAC7” value on Human HDAC7 (IC50 HDAC7/IC50 HDAC6) worked out at 70.3. In addition, the IC50 (as a rule, the concentration needed to halve the response being measured) on Human HDAC7 turned out to be 1410 nM.
Consider `O=C(CCCCCNC(=O)c1[nH]c(-c2ccccc2)cc1-c1ccc(O)cc1)NO` [Example 1, N-(6-(hydroxyamino)-6-oxohexyl)-3-(4-hydroxyphenyl)-5-phenyl-1H-pyrrole-2-carboxamide], for which the melting point – broadly, the temperature, or range, at which the solid turns liquid – was 99 to 100 °C.
Consider `O=C(CCCCCNC(=O)c1[nH]c(-c2ccc(O)cc2)cc1-c1ccccc1)NO` [Example 2, N-(6-(hydroxyamino)-6-oxohexyl)-5-(4-hydroxyphenyl)-3-phenyl-1H-pyrrole-2-carboxamide], for which the melting point is 224 to 225 °C.
Turning to `O=C(CCCCCNC(=O)c1[nH]c(-c2ccc(O)cc2)cc1-c1ccoc1)NO` [Example 5, 3-(3-furyl)-N-(5-(hydroxycarbamoyl)pentyl)-5-(4-hydroxy-phenyl)-1H-pyrrole-2-carboxamide], the IC50 on Human HDAC7 turned out to be 72 nM.
As to `O=C(CCCCCNC(=O)c1[nH]c(-c2ccc(O)cc2)cc1-c1ccsc1)NO` [Example 6, N-(5-(hydroxycarbamoyl)pentyl)-5-(4-hydroxyphenyl)-3-(3-thienyl)-1H-pyrrole-2-carboxamide], the concentration for half-maximal inhibition (IC50) at Human HDAC7 amounted to 318 nM.
